Measurements taken from patent US20130210846A1, “USE OF NOVEL PAN-CDK INHIBITORS FOR TREATING TUMORS” (BAYER INTELLECTUAL PROPERTY GMBH, priority 2010, published 2013).
Each block holds one compound with its values, some of them ahead of it.

Experiments:
[1] = test system: HCT116 human colorectal tumor cells; test: HCT116 human colorectal xenograft model; format: in vivo, female NMRI nude mice
From the text: (§1) Tumor cells grown in cell culture were implanted subcutaneously in the flank of female or male NMRI nude mice. The treatment was started as soon as the tumors had grown to a size of approx. 20 mm^2 The study was ended as soon as the tumors in one of the groups reached a size of approx. 150 mm^2.
(§2) Vehicle group: treatment with solubilizer (40% PEG400/60% water)
(§3) The studies were designed for determining the initial response of the human tumor model to the treatment with the Exemplary compound 2-SI-2. Tumor growth inhibition in percent (TGI) was either calculated at the end of the studies from the tumor weights (TGITW) using the formula 100×[1−(tumor weight of the treatment group/tumor weight of the vehicle group)], or on the day the vehicle group had to be ended from the tumor areas (TGITA) using the formula 100×[1−(tumor area of the treatment group on the day of the measurement−tumor area of the treatment group prior to treatment)/(tumor area of the vehicle group on the day of the measurement−tumor area of the vehicle group prior to treatment)]. In the case of a tumor growth inhibition of more than 50%, the treatment was considered to have been effective.
Efficacy in the HCT116 human colorectal xenograft model.
HCT116 human colorectal tumor cells implanted into female NMRI nude mice.
• a) 0.15 mg/ml, 0.20 mg/ml of Example 2-SI-2 in 40% (v/v) PEG 400 in water • b) 0.20 mg/ml, 0.25 mg/ml of Example 2-SI-2 in 40% (v/v) PEG 400 in water • c) 0.40 mg/ml, 0.50 mg/ml, 0.60 mg/ml of Example 2-SI-2 in 40% (v/v) PEG 400 in water
• a) 1.5 and 2.0 mg/kg (4.5 and 6.0 mg/m^2), 1× per day. • b) 2.0 and 2.5 mg/kg (6.0 and 7.5 mg/m^2), 2× per day on 2 successive days, followed by 5 treatment-free days. • c) 4.0 to 6.0 mg/kg (12 to 18 mg/m^2), 1× per day on 2 successive days, followed by 5 treatment-free days.

[2] = test system: NCI-H82 human small-cell lung tumor cells; test: NCI-H82 human small-cell lung tumor model; format: in vivo, female NMRI nude mice; conditions: NCI-H82; a) 1.7 mg/kg oral 2× per day on 3 successive days, followed by 4 treatment-free days
From the text: as §1, §2, §3
Efficacy in the NCI-H82 human small-cell lung tumor model.
NCI-H82 human small-cell lung tumor cells implanted into female NMRI nude mice.
• a) 0.17 mg/ml of Example 2-SI-2 in 40% (v/v) PEG 400 in water […]

[3] = test system: MDA-MB 231; test: Proliferation assay MDA-MB 231; format: cell-based; conditions: Homo sapiens, 96 h; MDA-MB 231, estrogen receptor-negative mamma carcinoma; 4 days, crystal violet
Experimental: (§4) Cultivated human tumor cells (originally obtained from ATCC, HeLa-MaTu and HeLa-MaTu-ADR, originally obtained from Epo GmbH, Berlin, Germany) were plated at a density of 1000 to 5000 cells/measuring point, depending on the growth rate of the cell line, in a 96-well multititer plate in 200 μl of growth medium (DMEM/HAMS F12, 2 mM L-glutamine, 10% fetal calf serum). After 24 hours the cells of one plate (zero-point plate) were stained with crystal violet (see below), whereas the medium of the other plates was replaced with fresh culture medium (200 μl), to which the test substances had been added at various concentrations (0 μM, and in the range 0.01-30 μM; the final concentration of the solvent dimethyl sulfoxide was 0.5%). The cells were incubated for 4 days in the presence of the test substances. Cellular proliferation was determined by staining the cells with crystal violet: the cells were fixed by adding 20 μl/measuring point of an 11% glutaraldehyde solution for 15 min at room temperature. […] The extinction was determined photometrically at a wavelength of 595 nm. The percentage change in cell growth was calculated by standardization of the measured values to the extinction values of the zero-point plate (=0%) and the extinction of the untreated (0 μM) cells (=100%). […] The IC50 values were determined by means of a 4-parameter fit using the company's own software. […]

[4] = test system: OVCAR-8; test: Proliferation assay OVCAR-8; format: cell-based; conditions: Homo sapiens, 96 h; OVCAR-8, ovarial carcinoma; 4 days, crystal violet
Experimental: as §4

[5] = test system: A2780; test: Proliferation assay A2780; format: cell-based; conditions: Homo sapiens, 96 h; A2780, ovarial carcinoma; 4 days, crystal violet
Experimental: as §4

[6] = test system: A2780-Cis; test: Proliferation assay A2780-Cis; format: cell-based; conditions: Homo sapiens, A2780cis, 96 h, ovarial carcinoma, 4 days, crystal violet
Experimental: as §4

[7] = test system: NCI-H69; test: Proliferation assay NCI-H69; format: cell-based; conditions: Homo sapiens, 96 h; NCI-H69, small-cell bronchial carcinoma; 4 days, crystal violet
Experimental: as §4

[8] = test system: MOLM-13; test: Proliferation assay MOLM-13; format: cell-based; conditions: Homo sapiens, 96 h; MOLM-13, leukemia; 4 days, crystal violet
Experimental: as §4

[9] = test system: HeLa-MaTu; test: Proliferation assay HeLa-MaTu; format: cell-based, human; conditions: Homo sapiens, 96 h, cervix carcinoma, 4 days, crystal violet
Summary of the method: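 Human tumour cells were seeded at 1000–5000 cells per well in DMEM/HAMS F12 with 2 mM L-glutamine and 10% FCS, then exposed after 24 h to compound at 0.01–30 μM (0.5% DMSO) for 4 days. Proliferation was read by crystal violet staining at 595 nm, normalised to a zero-point plate, and IC50 obtained by 4-parameter fit.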

[10] = HCT116; b) 2.5 mg/kg oral 2× per day on 2 successive days, followed by 5 treatment-free days

Structure (SMILES): C[C@@H](O)[C@@H](C)Oc1nc(Nc2ccc(S(C)(=N)=O)cc2)ncc1C(F)(F)F (mixture of isomers) [Example 2-SI-2, (RS)—S-(4-{[4-{[(1R,2R)-2-Hydroxy-1-methylpropyl]oxy}-5-(trifluoromethyl)pyrimidin-2-yl]-amino}phenyl)-S-methylsulfoximide]
TGITW (tumor growth inhibition from tumor weights) ([1]; HCT116; a) 2.0 mg/kg oral 1× per day): 67% | TGITW (tumor growth inhibition from tumor weights) [1, 10]: 57% | tumor regression observation [1, 10]: signs of tumor regression | TGITW (tumor growth inhibition from tumor weights) ([1]; HCT116; c) 5.0 mg/kg oral 1× per day on 2 successive days, followed by 5 treatment-free days): 83% | TGITW (tumor growth inhibition from tumor weights) [2]: 86%

IC50 [3]: 16 nM | IC50 [4]: 14 nM | IC50 [5]: 3 nM | IC50 [6]: 10 nM | IC50 [7]: 37 nM | IC50 [8]: 9 nM
Structure (SMILES): C[C@@H](O)[C@@H](C)Oc1nc(Nc2ccc(S(C)(=N)=O)cc2)ncc1C(F)(F)F (single isomer, unassigned) [Example 2-SI-2]

IC50 [9]: 10 nM
Structure (SMILES): C[C@@H](O)[C@@H](C)Nc1nc(Nc2ccc(S(=N)(=O)C3CC3)cc2)ncc1C(F)(F)F (mixture of isomers) [Example 4-SI-1, (RS)—S-Cyclopropyl-S-(4-{[4-{[(1R,2R)-2-hydroxy-1-methylpropyl]amino}-5-(trifluoromethyl)-pyrimidin-2-yl]amino}phenyl)sulfoximide]
